How the values were obtained:
[1] = system: NCI60 tumor cell line panel; set-up: method as in PMID 31894828; settings: against 53 human tumor cell lines; cited from earlier work
[2] = system: DLD1 spheroids; assay: Cell Titer-Glo 3D spheroid viability assay; assay type: cell-based, human; settings: 48 h; 25 at 0.61 and 1.22 μM
Description: (§1) Figure 12 Effect of compound 25 on the viability of spheroids established from two counterpart pairs of sensitive and MDR cell lines, from NSCLC (NCI-H460 and NCI-H460/R) and colorectal cancer (DLD1 and DLD1-TxR), using MicroTissue 3D Petri dishes. […] (B) Effect of compound 25 on the viability of NCI-H460 spheroids analyzed by Cell Titer-Glo 3D viability assay. (C) Effect of compound 25 on the viability of NCI-H460/R spheroids analyzed with the Cell Titer-Glo 3D viability assay. Results are presented as the % of luciferase luminescence relative to the “blank” cells (medium). […] (E) Effect of compound 25 on the viability of DLD1 spheroids analyzed by Cell Titer-Glo 3D viability assay. (F) Effect of compound 25 on the viability of DLD1-TxR spheroids analyzed with the Cell Titer-Glo 3D viability assay. Data are expressed as mean ± SEM from 3 independent experiments. * p ≤ 0.05 and ** p ≤ 0.01, when comparing DMSO vs compound treatment.
(§2) Spheroid formation was conducted in 12-series agarose 3D Petri Dish micromolds (MicroTissues Technology, MicroTissues Inc., Sigma-Aldrich). The agarose micromolds were prepared using 1% agarose in a 0.9% NaCl solution and then placed in 12-well plates and equilibrated with RPMI supplemented with 10% FBS for at least 2 h before cell seeding. Cell suspensions corresponding to 500 cells per spheroid of the NSCLC cell lines (NCI-H460 and NCI-H460/R), and 1000 cells per spheroid of the colorectal cancer cell lines (DLD1 and DLD1-TxR) were seeded in the corresponding micromolds. The choice of cell seeding concentration was based on a previous optimization assay (data not shown), ensuring that at the end of the assay the spheroids would have a size of around 400 μm. A 20 min incubation period was used for cells to settle into the micromolds and additional medium was finally added to the wells. Spheroid formation was monitored with the Leica DMi1 microscope. […] At the end of the treatment, images from at least 8 different spheroids per condition were captured on the Leica Dmi1 microscope, and posteriorly analyzed with the automated open-source software AnaSP.[82] Spheroid parameters, such as equivalent diameter, circularity, and compactness, were calculated.
(§3) Spheroid viability was determined through the luminescence-based Cell Titer-Glo 3D cell viability assay (Promega). Spheroids grown on MicroTissues 3D Petri Dish micromolds were exposed to the treatments, as described in the previous section. Then, the spheroids were transferred into 96-well plates in 50 μL of RPMI medium. […] The plate was then incubated in the dark for 5 min with agitation and allowed to rest for 25 min before luminescence measurement. Luminescence was quantified using the microplate reader Synergy MX coupled with the GEN5 software. […]

[3] = system: NCI-H460 spheroids; assay: Cell Titer-Glo 3D spheroid viability assay; assay type: cell-based, human; settings: 48 h; 25 at 0.35 and 0.7 μM; doxorubicin 50 nM
Description: as §1, §2, §3

[4] = system: DLD1-TxR spheroids; assay: Cell Titer-Glo 3D spheroid viability assay; assay type: cell-based, human; settings: 48 h; 25 at 0.61 and 1.22 μM
Description: as §1, §2, §3

[5] = system: NCI-H460 cells; assay: BrdU incorporation assay (cell proliferation); assay type: cell-based, human; settings: 48 h; 25 at 0.35 and 0.7 μM; doxorubicin 50 nM
Procedure: To assess the impact of compound 25 on cell proliferation, the bromodeoxyuridine (BrdU) incorporation assay was performed.
Figure 7 Effect of compound 25 on the % of proliferating NCI-H460 cells, determined with the BrdU assay. […] (A) Percentage of BrdU-incorporating cells under different treatments. Results are the mean ± SEM from at least 3 independent experiments. * p ≤ 0.05, ** p ≤ 0.01, when comparing DMSO vs compound treatment.
At 4 h before the end of this treatment, cells were incubated with 1 μM of BrdU (Merck Life Science). After collection of cells, they were fixed with paraformaldehyde 4% (Merck Life Science) for 40 min at room temperature (RT). Then, cells were subjected to a cytospin (500 rpm for 5 min), and cellular DNA was denaturated using 2 M of HCl (Merck Life Science) for 20 min. Cells were incubated with a PBS solution containing 0.5% Tween (Promega, Madison, Wisconsin, USA) and 0.05% bovine serum albumin (BSA; Merck Life Science). The cells were further incubated with a primary monoclonal mouse anti-BrdU Clone Bu20a antibody (1:10; Dako, Glostrup, Denmark) for 1 h, followed by incubation with a polyclonal rabbit antimouse immunoglobulins/FITC secondary antibody (1:100; Dako) for 30 min at RT. […] The cells were counted using the ImageJ 2.1.0 software.

[6] = system: NCI-H460 cells; assay: Cell cycle profile, PI staining flow cytometry; assay type: cell-based, human; settings: 48 h; for cell cycle profile: 25 at 0.35 and 0.7 μM, doxorubicin 50 nM
Procedure: The effect of 25 on the cell cycle profile of NCI-H460 cells was assessed.
Figure 8 Effect of compound 25 on the cell cycle profile of NCI-H460 cells, analyzed by flow cytometry (PI staining). […] (A) Frequency (%) of cell cycle phases for each condition. (B) Representative cell cycle histograms. Results are the mean ± SEM from at least 3 independent experiments. * p ≤ 0.05, when comparing DMSO vs compound treatment.
Collected cells were then fixed in ice-cold 70% ethanol (Fisher Scientific) overnight. Cells were then centrifuged again and resuspended in 5 μg/mL of PI (Merck Life Science) and 0.1 mg/mL RNase A (Invitrogen) in PBS, and kept in the dark for at least 30 min. Cellular DNA content was analyzed using the BD Accuri C6 Flow cytometer. At least 10 000 events per sample were acquired. FlowJo 7.6.5 software (Tree Star, Inc., Ashland, Oregon, USA) was used to determine the % of cells in the different phases of the cell cycle.

Row | SMILES | GI50 [1] | viability of DLD1 spheroids [2] | viability of NCI-H460 spheroids [3] | viability of DLD1-TxR spheroids [4] | percentage of proliferating (BrdU-incorporating) cells [5] | cells in sub-G1 phase ([6]; 0.35 and 0.7 μM) | cell cycle profile [6]
1 | COC(=O)c1c2c(c(C)[n+]([O-])c1C)C(=O)C=C(NCc1ccccc1)C2=O [Compound 2] | 910 nM |  |  |  |  |  | 
2 | COC(=O)c1c2c(c[n+]([O-])c1C)C(=O)C=C(NCc1ccccc1)C2=O [Compound 25] |  | significant decrease in the viability of the spheroids | significant decrease in the viability of the spheroids | significant decrease in the viability of the spheroids | significantly reduced the percentage of NCI-H460 proliferating cells | slight increase in the percentage of cells in the sub-G1 phase, although not statistically significant | increase in the G1 phase and decrease in the S phase
3 | COc1cccc2c1C(=O)c1c(O)c3c(c(O)c1C2=O)C[C@@](O)(C(=O)CO)C[C@@H]3O[C@H]1C[C@H](N)[C@H](O)[C@H](C)O1 [doxorubicin, reference compound] |  |  | did not significantly affect the viability of the spheroids |  | significantly reduced the percentage of NCI-H460 proliferating cells |  | major alterations in the cell cycle profile

Source: article PMC11345829, “Discovery of Potent Isoquinolinequinone N-Oxides to Overcome Cancer Multidrug Resistance” (Journal of Medicinal Chemistry, 2024)
